Laboratory results reported in patent publication US7220822B2, “CD28 mimetics for blocking T cell mediated immune reactions” (The Ohio State University, priority 2000, dated 2007).
Entries after “also recorded” stand apart in the source; their conditions may differ. Like-named read-outs stand apart in the source and are kept apart here. Square brackets hold non-standard residues; d marks the D form. Peptide text beside a SMILES is read from it.

Columns and labels:
[1] = target: T1, CD80-Ig (Homo sapiens, UniProt P33681); assay: Competitive kinetic analysis (SPR): CD28 peptides versus CD28-Ig for binding indirectly immobilized CD80-Ig; settings: for kd: competition with CD28-Ig 3.2 μM
T1 construct: extracellular domain of CD80 fused with the constant region of mouse IgG1 heavy chain
T1 sequence (P33681 35-242 limits assumed, other chains not shown): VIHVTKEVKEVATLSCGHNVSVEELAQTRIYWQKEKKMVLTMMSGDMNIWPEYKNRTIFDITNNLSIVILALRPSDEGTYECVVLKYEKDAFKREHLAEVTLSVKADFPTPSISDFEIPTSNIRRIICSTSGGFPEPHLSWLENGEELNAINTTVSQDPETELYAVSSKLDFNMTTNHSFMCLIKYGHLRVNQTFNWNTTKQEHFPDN
Experimental: Competitive kinetic analysis was performed as described previously using purified anti-mouse IgG1 Fc (31437zz) (Pierce City, Ill., USA) to indirectly immobilize CD80-Ig (39). […] The binding kinetics of CD28-Ig was assessed by injecting a range of CD28-Ig concentration (187 nM to 12 μM) over immobilized CD80-Ig (324 RU) for 5 min at 10 μl/min. CD80-Ig was regenerated using a 3 min injection of 5 mM NaOH. For competitive kinetic analysis, 100 μl of a 3.2 μM CD28-Ig solution was mixed with 100 μl of EL CD28 or RI CD28 peptides (6.18 μM to 503 μM in HBS-EP) and injected over the surface of CD80-Ig as secondary analyte for 5 min with a flow rate of 10 μl/min. The CD80-Ig surface was regenerated between injections by washing for 3 min with 5 mM NaOH. The mixtures were also injected on an empty flow cell with no protein immobilized, as a control.
In competitive kinetic experiments, the observed response R is the sum of the contributions of R1 and R2 from the two analytes. The binding data was analyzed using the equation R(t)=R1 (CD28-Ig)+R2 (CD28-P) (3) where • R1=Rmaxka1C1/kf−ks{k1(kf−ks)/kf*ks+k1−kf/kf*e^−kf^(t−t0)−k1ks/ks*e^−ks(t−t0)} • R2=RmaxMW1ka2C2/MW2*kf−ks[{k2(kf−ks)}/kf*ks}+(k2−kf/kf)*e^−kf^(t−t0)−(k2−ks/ks)*e^−ks(t−t0) • kf=0.5{ktq+k2+π(ka1−k2)^2+4kf1kCD28PC1C2} • ks=0.5{kt1+k2−π(kt1−k2)^2+4k1k2C1C2} • kt CD28-Ig=ka1C+kd1 • kt2=ka2C2+kd2
When competitive data were analyzed, ka, kd and Rmax values obtained for the interaction between CD80-Ig and CD28-Ig were used as non floating parameters and the rate constants for CD28 peptides were calculated from the injection phase data using the expanded equation 3.
FIGS. 4a and 4b are representative sensograms obtained from the competitive experiments using the CD28-Ig and ELCD28 and RICD28 APR respectively. The top curve is the interaction of CD28-Ig (3.2 μM) alone with the CD80-Ig. The response level gradually goes down as the concentration of the specified CD28 peptide increases. […] However, the dissociation constant varied with varying concentration of EL CD28 peptide mimetic(Table 3).

[2] = test system: CD4+ LNC bearing Vα4 Vβ8.2 TCR; assay: IL-2 ELISPOT of antigen-stimulated CD4+ lymph node cells in vitro; format: cell-based, mouse; parameters: frequency of IL-2 secreting cells (in words): dose or concentration left out as unconfirmed; settings: for number of IL-2 secreting NAc1-11 responders (in words): 75 μM and 100 μM peptide, p<0.05; for frequency of IL-2 secreting cells (in words): compared to untreated cells
Experimental: Augmentation of T cell proliferation following CD28 ligation is a result of its ability to increase the synthesis of IL-2. To determine whether the observed reduction in proliferation is reflected in the IL-2 secretion, the ELISPOT assay was performed.
Ninety-six well unifilter plates (Polyfiltronics, Rockland, Md.) were coated overnight at 4° C. with rat anti-mouse IL-2 (Clone JES6-1A12) (Pharmingen, Calif.) at 4 μg/ml. The plates were then washed 4× with sterile PBS and blocked with 1% BSA in DMEM for 2 h at room temperature. Subsequently, isolated single cell suspensions of CD4+ LNC (5×10^6 cells/ml) and splenocytes (10×10^6 cells/ml) were added with the antigens and CD28 peptides under the conditions as specified for the proliferation assays. After 24 h of culture in the incubator, the cells were removed by washing 3× with PBS and 4× with PBS containing Tween (1:2000) (PBST). Then biotinylated anti mouse-IL-2 (Clone JES6-5H4) (Pharmingen, Calif.) 2 μg/ml was added and incubated at 4° C. overnight. After washing 3× with PBST and 3× with PBS, goat anti-biotin antibody conjugated to alkaline phosphatase (Vector Laboratories Inc, Burlingame, Calif.) diluted to 1:1000 in PBST containing 1% BSA was added and incubated for 2 h at room temperature. The spots were visualized by adding BCIP/NBT phosphatase substrate (Kirkeguard & Perry Laboratories, Gaithesburg, Md.). Image analysis of ELISA spot assays was performed on a Series 1 Immunospot Image Analyzer (Autoimmun Diagnostika (US) Inc.) customized for analyzing ELISA spots to meet objective criteria for size, chromatic density, shape and color.

[3] = test system: CD4+ LNC from TCR Vβ 8.2 Vα 4 transgenic mice; assay: Apoptosis (TUNEL, flow cytometry) of antigen-stimulated Vβ8.2+ CD4+ lymph node cells in vitro; format: cell-based, mouse
Experimental: (§1) To investigate whether the observed decrease in proliferative responses following treatment with CD28 peptides is a result of cell loss, cell death was measured by enzymatic in-situ labeling. Apoptotic cells among MBP NAc1-11 stimulated TCR Vβ 8.2+ CD4+ T cells were detected by staining with FITC labeled Tdt (terminal deoxynucleotidyl transferase). Cells incubated in DNAse served as positive control.
(§2) CD4+ T cells from pooled lymph nodes and spleen from B10.PL TCR Vβ 8.2 Vα 4 transgenic mice were cultured in RPMI 1640 in a 96 well round-bottom plate, essentially under the conditions specified for proliferation assays. Cells were harvested at the end of 48 hours and apoptotic cells among TCR Vβ 8.2+ CD4+ T cells were detected by the TUNEL method. Briefly, after washing twice with PBS containing 1-% rat serum, the cells were stained with PE labeled anti-mouseVβ 8.1,8.2 TCR (clone MR5-2) (Pharmingen, San Diego, Calif.) for 30 min at room temperature and washed. Subsequently, the cells were fixed with 4% paraformaldehyde in PBS for 30 min at room temperature. Then the cells were washed and permeabilized with 0.1% Triton X-100 in 0.1% sodium citrate for 2 min at 4° C. After washing, the DNA strand breaks in the cells were detected by incubating the cells with fluorescein labeled TUNEL mix (terminal deoxynucleotidyl transferase (Tdt)) for 60 min at 37° C. using an in situ cell death detection kit (Boehringer Mannheim, Mannheim, Germany) according to the manufacturer's recommendations. As a positive control, cells were incubated in DNAse (1 mg/ml) for 10 minutes at room temperature prior to incubation with TdT. The negative control consisted of cells incubated without TdT. Cells were then washed with PBS and analyzed by flow cytometry.

[4] = test system: CD4+Vβ8.2+ spleen cells; assay: Apoptosis (TUNEL, flow cytometry) of antigen-stimulated CD4+Vβ8.2+ spleen cells in vitro; format: cell-based, mouse; settings: 150 μM peptide, data not shown
Experimental: as §1
as §2, with “Subsequently, the cells were fixed with 4% paraformaldehyde in PBS for 30 min at room temperature. Then the cells were washed and permeabilized with 0.1% Triton X-100 in 0.1% sodium citrate for 2 min at 4° C.” left out, “As a positive control, cells were incubated in DNAse (1 mg/ml) for 10 minutes at room temperature prior to incubation with TdT. The negative control consisted of cells incubated without TdT.” left out

[5] = read-out: ka, competition with CD28-Ig 3.2 μM, peptide C 0.125 × 10^5 nM
[6] = read-out: ka, competition with CD28-Ig 3.2 μM, peptide C 0.25 × 10^5 nM
[7] = read-out: ka, competition with CD28-Ig 3.2 μM, peptide C 0.5 × 10^5 nM
[8] = read-out: ka, competition with CD28-Ig 3.2 μM, peptide C 1 × 10^5 nM
[9] = read-out: ka, competition with CD28-Ig 3.2 μM, peptide C 2 × 10^5 nM
[10] = read-out: ka, competition with CD28-Ig 3.2 μM, peptide C 3 × 10^5 nM
[11] = 150 μM peptide, 48 hr, versus untreated

Compound | kd ([1]; peptide C 0.125 × 10^5 nM) [s⁻¹] | kd ([1]; peptide C 0.25 × 10^5 nM) [s⁻¹] | kd ([1]; peptide C 0.5 × 10^5 nM) [s⁻¹] | kd ([1]; peptide C 1 × 10^5 nM) [s⁻¹] | kd ([1]; peptide C 2 × 10^5 nM) [s⁻¹] | kd ([1]; peptide C 3 × 10^5 nM) [s⁻¹] | kon [1, 5] [M⁻¹ s⁻¹] | kon [1, 6] [M⁻¹ s⁻¹] | kon [1, 7] [M⁻¹ s⁻¹] | kon [1, 8] [M⁻¹ s⁻¹] | kon [1, 9] [M⁻¹ s⁻¹] | kon [1, 10] [M⁻¹ s⁻¹] | number of IL-2 secreting NAc1-11 responders (in words) [2] | frequency of IL-2 secreting cells (in words) [2] | percentage of apoptotic cells (in words) [3, 11] | percentage of apoptotic cells (in words) ([3]; 150 μM peptide, 48 hr, versus untreated, listed as ELCD28) | apoptosis (in words) [4] | percentage of apoptotic cells (in words) ([3]; 75 μM peptide, 48 hrs)
CC[C@H](C)[C@H](NC(=O)[C@@H](NC(=O)CNC(=O)[C@H](CC(N)=O)NC(=O)[C@H](CO)NC(=O)[C@H](CCCNC(=N)N)NC(=O)[C@H](CCC(=O)O)NC(=O)[C@H](CC(N)=O)NC(=O)[C@H](CC(=O)O)NC(=O)[C@H](CC(C)C)NC(=O)[C@H](Cc1ccc(O)cc1)NC(=O)[C@@H]1CCCN1C(=O)[C@@H]1CCCN1C(=O)[C@@H]1CCCN1C(=O)[C@H](Cc1ccc(O)cc1)NC(=O)[C@H](CCSC)NC(=O)[C@H](Cc1ccccc1)NC(=O)[C@H](CCC(=O)O)NC(=O)[C@@H](NC(=O)[C@H](CCCCN)NC(C)=O)[C@@H](C)CC)[C@@H](C)O)C(N)=O [EL CD28] (Ac-KIEFMYPPPYLDNERSNGTI-NH2) | 0.101 | 0.0195 | 0.316 | 0.0803 | 0.0862 | 6.89 | 73400 | 3360 | 63200 | 31600 | 55100 | 2.36e+06 | Significant decrease | significantly reduced | Significant increase | significantly higher percentage | increase in apoptosis | 
CC[C@@H](C)[C@@H](NC(C)=O)C(=O)N[C@@H](C(=O)NCC(=O)N[C@H](CC(N)=O)C(=O)N[C@H](CO)C(=O)N[C@H](CCCNC(=N)N)C(=O)N[C@H](CCC(=O)O)C(=O)N[C@H](CC(N)=O)C(=O)N[C@H](CC(=O)O)C(=O)N[C@H](CC(C)C)C(=O)N[C@H](Cc1ccc(O)cc1)C(=O)N1CCC[C@@H]1C(=O)N1CCC[C@@H]1C(=O)N1CCC[C@@H]1C(=O)N[C@H](Cc1ccc(O)cc1)C(=O)N[C@H](CCSC)C(=O)N[C@H](Cc1ccccc1)C(=O)N[C@H](CCC(=O)O)C(=O)N[C@@H](C(=O)N[C@H](CCCCN)C(N)=O)[C@H](C)CC)[C@H](C)O [RI CD28] (Ac-[dI][dT]G[dN][dS][dR][dE][dN][dD][dL][dY][dP][dP][dP][dY][dM][dF][dE][dI][dK]-NH2) | 0.177 | 0.0738 | 0.275 | 0.142 | 0.0245 | 0.0206 | 105000 | 54400 | 92400 | 94700 | 23500 | 10700 | Significant decrease | significantly reduced | significantly higher percentage; also recorded: Significant increase |  | increase in apoptosis | Significant increase
